Results reported in the NIST ThermoML archive (doi:10.1016/j.jct.2005.03.012).

Assay: molar heat capacity at constant pressure; xn = mol fraction of the nth substance listed
Details: Liquid, Flow calorimetry

CO [methanol] + O
Details | molar heat capacity at constant pressure [J/K/mol]
329.01 K, 5000 kPa, x1 = 0.9 | 88.91
330.62 K, 10000 kPa, x1 = 0.8 | 89.87
330.92 K, 5000 kPa, x1 = 0.8 | 90.19
330.98 K, 2000 kPa, x1 = 0.8 | 89.81
331.74 K, 5000 kPa, x1 = 0.1 | 82.22
332.15 K, 5000 kPa, x1 = 0.7 | 90.68
333.12 K, 10000 kPa, x1 = 0.6 | 90
333.19 K, 5000 kPa, x1 = 0.6 | 90.87
333.43 K, 5000 kPa, x1 = 0.2 | 86.68
333.48 K, 10000 kPa, x1 = 0.2 | 86.18
333.52 K, 2000 kPa, x1 = 0.6 | 90.9
333.71 K, 2000 kPa, x1 = 0.2 | 86.86
333.89 K, 5000 kPa, x1 = 0.5 | 90.43
333.95 K, 5000 kPa, x1 = 0.4 | 89.97
334 K, 5000 kPa, x1 = 0.3 | 88.54
334.08 K, 10000 kPa, x1 = 0.4 | 89.57
334.13 K, 2000 kPa, x1 = 0.4 | 90.16
352.61 K, 5000 kPa, x1 = 0.9 | 95.17
354.08 K, 5000 kPa, x1 = 0.8 | 95.72
354.53 K, 5000 kPa, x1 = 0.1 | 82.78
355.25 K, 5000 kPa, x1 = 0.7 | 96.11
355.71 K, 5000 kPa, x1 = 0.6 | 95.6
355.86 K, 5000 kPa, x1 = 0.5 | 94.46
355.92 K, 5000 kPa, x1 = 0.2 | 87.32
356.11 K, 5000 kPa, x1 = 0.4 | 92.66
356.17 K, 5000 kPa, x1 = 0.3 | 90.87
376.69 K, 5000 kPa, x1 = 0.9 | 102.61
377.42 K, 5000 kPa, x1 = 0.8 | 102.59
377.92 K, 5000 kPa, x1 = 0.1 | 83.23
377.99 K, 5000 kPa, x1 = 0.7 | 101.84
378.34 K, 5000 kPa, x1 = 0.6 | 100.47
378.47 K, 5000 kPa, x1 = 0.5 | 98.56
378.64 K, 5000 kPa, x1 = 0.4 | 96.44
378.77 K, 5000 kPa, x1 = 0.3 | 92.83
378.78 K, 5000 kPa, x1 = 0.2 | 88.72
424.2 K, 5000 kPa, x1 = 0.5 | 107.27
424.22 K, 5000 kPa, x1 = 0.4 | 102.77
424.24 K, 5000 kPa, x1 = 0.7 | 114.48
424.36 K, 10000 kPa, x1 = 0.4 | 101.14
424.4 K, 2000 kPa, x1 = 0.4 | 102.94
424.42 K, 2000 kPa, x1 = 0.6 | 111.49
424.47 K, 5000 kPa, x1 = 0.6 | 111.25
424.53 K, 10000 kPa, x1 = 0.6 | 108.79
424.54 K, 5000 kPa, x1 = 0.8 | 118.06
424.59 K, 2000 kPa, x1 = 0.8 | 118.73
424.59 K, 10000 kPa, x1 = 0.8 | 118.7
424.7 K, 10000 kPa, x1 = 0.2 | 91.26
424.77 K, 2000 kPa, x1 = 0.2 | 92.01
424.89 K, 5000 kPa, x1 = 0.9 | 121.27
424.97 K, 5000 kPa, x1 = 0.3 | 97.58
425.05 K, 5000 kPa, x1 = 0.2 | 91.9
425.68 K, 5000 kPa, x1 = 0.1 | 85.15
437.16 K, 8500 kPa, x1 = 0.6 | 124.31
471.84 K, 10000 kPa, x1 = 0.6 | 122.64
471.87 K, 10000 kPa, x1 = 0.4 | 110.24
472.32 K, 5000 kPa, x1 = 0.4 | 111.75
472.41 K, 8500 kPa, x1 = 0.4 | 110.52
472.56 K, 5000 kPa, x1 = 0.5 | 119.44
472.78 K, 8500 kPa, x1 = 0.2 | 96.55
472.91 K, 5000 kPa, x1 = 0.3 | 104.69
472.98 K, 5000 kPa, x1 = 0.6 | 127.9
473.11 K, 5000 kPa, x1 = 0.7 | 135.08
473.16 K, 5000 kPa, x1 = 0.8 | 143
473.21 K, 10000 kPa, x1 = 0.8 | 135.8
473.53 K, 10000 kPa, x1 = 0.2 | 96.73
473.95 K, 5000 kPa, x1 = 0.9 | 153.78
474.26 K, 5000 kPa, x1 = 0.2 | 96.84
474.27 K, 5000 kPa, x1 = 0.1 | 89.79
474.92 K, 8500 kPa, x1 = 0.8 | 138.52
497 K, 10000 kPa, x1 = 0.2 | 100.23
497 K, 10000 kPa, x1 = 0.4 | 117.78
497.3 K, 8500 kPa, x1 = 0.3 | 109.45
497.56 K, 8500 kPa, x1 = 0.4 | 118.93
497.97 K, 8500 kPa, x1 = 0.2 | 101.63
498.08 K, 8500 kPa, x1 = 0.5 | 128.47
498.33 K, 8500 kPa, x1 = 0.6 | 139.08
498.46 K, 10000 kPa, x1 = 0.6 | 136.33
499.19 K, 8500 kPa, x1 = 0.1 | 92.18
499.79 K, 8500 kPa, x1 = 0.8 | 166.33
499.83 K, 10000 kPa, x1 = 0.8 | 159.51
499.85 K, 8500 kPa, x1 = 0.7 | 152.5
500.37 K, 8500 kPa, x1 = 0.9 | 185.8
507.38 K, 10000 kPa, x1 = 0.2 | 104.52
507.6 K, 10000 kPa, x1 = 0.4 | 122.36
508.54 K, 10000 kPa, x1 = 0.6 | 145.98
508.68 K, 8500 kPa, x1 = 0.1 | 95.38
508.96 K, 8500 kPa, x1 = 0.2 | 103.83
509.5 K, 10000 kPa, x1 = 0.8 | 178.64
509.58 K, 8500 kPa, x1 = 0.4 | 124.67
510.29 K, 8500 kPa, x1 = 0.5 | 137.86
510.32 K, 8500 kPa, x1 = 0.3 | 114.54
511.09 K, 8500 kPa, x1 = 0.8 | 204.86
511.15 K, 8500 kPa, x1 = 0.7 | 175.97
511.4 K, 8500 kPa, x1 = 0.6 | 155.15
511.68 K, 8500 kPa, x1 = 0.9 | 268
513.62 K, 10000 kPa, x1 = 0.5 | 138.48
514.03 K, 10000 kPa, x1 = 0.4 | 126.54
514.03 K, 10000 kPa, x1 = 0.6 | 154.89
514.08 K, 10000 kPa, x1 = 0.3 | 115.36
514.53 K, 10000 kPa, x1 = 0.1 | 95.01
514.91 K, 10000 kPa, x1 = 0.2 | 105.19
514.98 K, 10000 kPa, x1 = 0.9 | 229.95
515.2 K, 10000 kPa, x1 = 0.8 | 198.37
515.25 K, 10000 kPa, x1 = 0.7 | 174.88
515.73 K, 8500 kPa, x1 = 0.1 | 95.69
516.4 K, 8500 kPa, x1 = 0.9 | 508.52
517.62 K, 8500 kPa, x1 = 0.2 | 106.77
517.97 K, 8500 kPa, x1 = 0.3 | 119.14
518.82 K, 8500 kPa, x1 = 0.8 | 303.27
519.33 K, 8500 kPa, x1 = 0.4 | 133.94
519.69 K, 8500 kPa, x1 = 0.7 | 212.23
520.61 K, 8500 kPa, x1 = 0.5 | 150.12
522.42 K, 8500 kPa, x1 = 0.6 | 186.76
